Source: ChEMBL document CHEMBL1140081 (J Med Chem, 2008)

Legend:
Cytochrome P450 3A4 = Cytochrome P450 3A4 (Homo sapiens, UniProt P08684); assay: Inhibition of CYP3A4; format: ADME
[1] = Terminal half life in rhesus monkey at 1 mg/kg, iv; format: ADME, organism-based, Macaca mulatta; design: dose 1 mg/kg, route intravenous; details: in vivo, read-out: beta t1/2 (converted)
[2] = Inhibition of human DNA polymerase gamma
[3] = Oral bioavailability in po dosed dog; format: ADME, organism-based, Canis lupus familiaris; details: in vivo
[4] = Oral bioavailability in po dosed rhesus monkey; format: ADME, organism-based, Macaca mulatta; details: in vivo
[5] = Inhibition of HIV reverse transcriptase; design: species or system Human immunodeficiency virus
[6] = Plasma clearance in dog at 1 mg/kg, iv; format: ADME, organism-based, Canis lupus familiaris; design: dose 1 mg/kg, route intravenous
[7] = tested on: Human immunodeficiency virus 1; assay: Antiviral activity against HIV1 with integrase T66I/S153Y mutation by single cycle infectivity assay in presence of 10%FBS; format: functional
[8] = AUC in dog at 2 mg/kg, po; format: ADME, organism-based, Canis lupus familiaris; design: dose 2 mg/kg, route oral; details: plasma
[9] = Inhibition of HCV polymerase; design: species or system Hepacivirus hominis
[10] = tested on: Human immunodeficiency virus 1; assay: Antiviral activity against HIV1 with integrase N155S mutation by single cycle infectivity assay in presence of 10%FBS; format: functional
[11] = Cmax in dog at 2 mg/kg, po; format: ADME, organism-based, Canis lupus familiaris; design: dose 2 mg/kg, route oral; details: in vivo
Cytochrome P450 1A2 = target: T1, Cytochrome P450 1A2 (Homo sapiens, UniProt P05177); assay: Inhibition of CYP1A2; format: ADME
T1 sequence (P05177 whole entry): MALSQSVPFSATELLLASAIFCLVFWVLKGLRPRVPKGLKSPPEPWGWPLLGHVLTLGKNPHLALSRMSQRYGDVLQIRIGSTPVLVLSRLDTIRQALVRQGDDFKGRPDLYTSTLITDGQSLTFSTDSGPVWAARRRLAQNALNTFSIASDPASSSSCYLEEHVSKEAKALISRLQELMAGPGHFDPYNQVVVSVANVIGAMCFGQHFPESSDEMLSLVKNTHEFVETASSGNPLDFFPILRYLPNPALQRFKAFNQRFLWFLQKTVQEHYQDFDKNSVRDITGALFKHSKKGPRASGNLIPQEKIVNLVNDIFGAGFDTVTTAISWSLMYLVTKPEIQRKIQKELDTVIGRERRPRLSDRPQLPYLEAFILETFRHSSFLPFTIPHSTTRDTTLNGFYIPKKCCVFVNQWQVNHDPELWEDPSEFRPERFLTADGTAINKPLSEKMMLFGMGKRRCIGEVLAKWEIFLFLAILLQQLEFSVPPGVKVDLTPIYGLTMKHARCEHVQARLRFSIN

[12] = tested on: Human immunodeficiency virus 1; assay: Antiviral activity against HIV1 with integrase T66I/L74M/V151I mutation by single cycle infectivity assay in presence of 10%FBS; format: functional
[13] = AUC in Sprague-Dawley rat at 3 mg/kg, po; format: ADME, organism-based; design: dose 3 mg/kg, route oral; details: plasma
[14] = tested on: Human immunodeficiency virus 1; assay: Antiviral activity against HIV1 with integrase T66I/M154 mutation by single cycle infectivity assay in presence of 10%FBS; format: functional
[15] = tested on: Human immunodeficiency virus 1; assay: Antiviral activity against HIV1 3B in human MT4 cells in presence of 10% heat-inactivated fetal bovine serum; details: Human immunodeficiency virus 1, 3B, read-out: CIC95
[16] = AUC in rhesus monkey at 10 mg/kg, po; format: ADME, organism-based, Macaca mulatta; design: dose 10 mg/kg, route oral; details: plasma
[17] = tested on: Human immunodeficiency virus 1; assay: Antiviral activity against HIV1 3B in human MT4 cells in presence of 50% normal human serum; format: functional; details: read-out: CIC95
[18] = AUC in dog at 10 mg/kg, po; format: ADME, organism-based, Canis lupus familiaris; design: dose 10 mg/kg, route oral; details: plasma
[19] = Terminal half life in dog at 1 mg/kg, iv; format: ADME, organism-based, Canis lupus familiaris; design: dose 1 mg/kg, route intravenous; details: in vivo, read-out: beta t1/2 (converted)
[20] = Volume of distribution in Sprague-Dawley rat at 3 mg/kg, iv; format: ADME, organism-based; design: dose 3 mg/kg, route intravenous; details: in vivo
[21] = Plasma clearance in Sprague-Dawley rat at 3 mg/kg, iv; format: ADME, organism-based; design: dose 3 mg/kg, route intravenous
[22] = Volume of distribution in dog at 1 mg/kg, iv; format: ADME, organism-based, Canis lupus familiaris; design: dose 1 mg/kg, route intravenous; details: in vivo
Cytochrome P450 2D6 = Cytochrome P450 2D6 (Homo sapiens, UniProt P10635); assay: Inhibition of CYP2D6; format: ADME
Chain of Cytochrome P450 2D6 (P10635 whole entry): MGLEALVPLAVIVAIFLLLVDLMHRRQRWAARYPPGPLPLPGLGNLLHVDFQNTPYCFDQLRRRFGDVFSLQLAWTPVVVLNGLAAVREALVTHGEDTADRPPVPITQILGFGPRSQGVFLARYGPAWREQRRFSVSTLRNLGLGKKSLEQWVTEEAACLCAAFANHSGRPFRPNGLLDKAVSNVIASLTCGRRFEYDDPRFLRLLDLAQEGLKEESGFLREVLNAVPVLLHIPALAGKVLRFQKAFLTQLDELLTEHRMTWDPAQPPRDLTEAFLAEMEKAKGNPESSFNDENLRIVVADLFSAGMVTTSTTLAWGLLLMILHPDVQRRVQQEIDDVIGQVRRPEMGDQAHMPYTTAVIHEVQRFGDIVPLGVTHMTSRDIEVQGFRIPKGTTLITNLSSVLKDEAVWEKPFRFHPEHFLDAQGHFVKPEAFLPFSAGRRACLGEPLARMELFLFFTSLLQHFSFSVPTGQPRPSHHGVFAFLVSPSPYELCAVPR

[23] = Inhibition of HIV ribonuclease H; design: species or system Human immunodeficiency virus
[24] = Cmax in Sprague-Dawley rat at 3 mg/kg, po; format: ADME, organism-based; design: dose 3 mg/kg, route oral; details: in vivo
[25] = Inhibition of human DNA polymerase alpha
[26] = tested on: Human immunodeficiency virus 1; assay: Antiviral activity against HIV1 with integrase T125K/F121Y mutation by single cycle infectivity assay in presence of 10%FBS; format: functional
[27] = Cmax in dog at 10 mg/kg, po; format: ADME, organism-based, Canis lupus familiaris; design: dose 10 mg/kg, route oral; details: in vivo
[28] = Terminal half life in po dosed rhesus monkey; format: ADME, organism-based, Macaca mulatta; details: in vivo, read-out: beta t1/2 (converted)
DNA polymerase beta = DNA polymerase beta (Homo sapiens, UniProt P06746); assay: Inhibition of human DNA polymerase beta
Cytochrome P450 2C9 = Cytochrome P450 2C9 (Homo sapiens, UniProt P11712); assay: Inhibition of CYP2C9; format: ADME
Chain of Cytochrome P450 2C9 (P11712 whole entry): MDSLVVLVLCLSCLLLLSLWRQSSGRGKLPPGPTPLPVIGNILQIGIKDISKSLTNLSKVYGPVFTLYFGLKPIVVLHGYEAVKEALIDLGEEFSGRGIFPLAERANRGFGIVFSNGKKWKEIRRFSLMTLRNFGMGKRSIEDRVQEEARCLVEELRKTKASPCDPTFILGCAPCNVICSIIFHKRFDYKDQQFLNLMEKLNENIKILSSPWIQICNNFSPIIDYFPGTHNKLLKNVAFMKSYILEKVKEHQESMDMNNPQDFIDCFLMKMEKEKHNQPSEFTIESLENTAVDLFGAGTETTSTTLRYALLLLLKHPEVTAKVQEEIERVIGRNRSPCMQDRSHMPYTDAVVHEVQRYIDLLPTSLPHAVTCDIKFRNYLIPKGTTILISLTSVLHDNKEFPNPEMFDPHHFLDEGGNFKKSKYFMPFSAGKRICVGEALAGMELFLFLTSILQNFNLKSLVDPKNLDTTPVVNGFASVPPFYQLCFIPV

[29] = Plasma clearance in rhesus monkey at 1 mg/kg, iv; format: ADME, organism-based, Macaca mulatta; design: dose 1 mg/kg, route intravenous
[30] = Volume of distribution in rhesus monkey at 1 mg/kg, iv; details: in vivo
[31] = Cmax in po dosed rhesus monkey; format: ADME, organism-based, Macaca mulatta; design: route oral; details: in vivo
[32] = Oral bioavailability in po dosed Sprague-Dawley rat; format: ADME, organism-based; details: in vivo
[33] = Terminal half life in Sprague-Dawley rat at 3 mg/kg, iv; format: ADME, organism-based; design: dose 3 mg/kg, route intravenous; details: in vivo, read-out: beta t1/2 (converted)
[34] = Cmax in Sprague-Dawley rat at 100 mg/kg, po using PEG400 as vehicle; format: ADME, organism-based; design: dose 100 mg/kg, route oral; details: in vivo
[35] = Primary phase half life in Sprague-Dawley rat at 3 mg/kg, iv; format: ADME, organism-based; design: dose 3 mg/kg, route intravenous; details: in vivo, read-out: alphat1/2 (converted)
[36] = Cmax in rhesus monkey at 10 mg/kg, po; format: ADME, organism-based, Macaca mulatta; design: dose 10 mg/kg, route oral; details: in vivo
[37] = target: Human immunodeficiency virus type 1 integrase (Human immunodeficiency virus 1, UniProt Q7ZJM1); assay: Inhibition of HIV1 recombinant integrase strand transfer activity
Chain of Human immunodeficiency virus type 1 integrase (Q7ZJM1 whole entry): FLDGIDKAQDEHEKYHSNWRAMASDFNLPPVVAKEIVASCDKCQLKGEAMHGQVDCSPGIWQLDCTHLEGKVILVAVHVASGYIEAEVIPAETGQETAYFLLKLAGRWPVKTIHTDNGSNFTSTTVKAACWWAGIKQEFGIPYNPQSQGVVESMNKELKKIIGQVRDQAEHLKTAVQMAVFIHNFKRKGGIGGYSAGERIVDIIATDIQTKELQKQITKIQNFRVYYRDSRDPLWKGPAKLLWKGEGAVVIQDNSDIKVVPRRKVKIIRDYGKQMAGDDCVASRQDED

[38] = Cmax in Sprague-Dawley rat at 100 mg/kg, po using 1% methyl cellulose as vehicle; format: ADME, organism-based; design: dose 100 mg/kg, route oral; details: in vivo
[39] = Terminal half life in dog at 10 mg/kg, po; format: ADME, organism-based, Canis lupus familiaris; design: dose 10 mg/kg, route oral; details: in vivo, read-out: beta t1/2 (converted)
[40] = Terminal half life in po dosed Sprague-Dawley rat; format: ADME, organism-based; details: in vivo
[41] = Volume of distribution in dog at 5 mg/kg, iv; format: ADME, organism-based, Canis lupus familiaris; design: dose 5 mg/kg, route intravenous; details: in vivo
[42] = target: Voltage-gated inwardly rectifying potassium channel KCNH2 (Homo sapiens, UniProt Q12809); assay: Binding affinity to human ERG
Chain of Voltage-gated inwardly rectifying potassium channel KCNH2 (Q12809 whole entry): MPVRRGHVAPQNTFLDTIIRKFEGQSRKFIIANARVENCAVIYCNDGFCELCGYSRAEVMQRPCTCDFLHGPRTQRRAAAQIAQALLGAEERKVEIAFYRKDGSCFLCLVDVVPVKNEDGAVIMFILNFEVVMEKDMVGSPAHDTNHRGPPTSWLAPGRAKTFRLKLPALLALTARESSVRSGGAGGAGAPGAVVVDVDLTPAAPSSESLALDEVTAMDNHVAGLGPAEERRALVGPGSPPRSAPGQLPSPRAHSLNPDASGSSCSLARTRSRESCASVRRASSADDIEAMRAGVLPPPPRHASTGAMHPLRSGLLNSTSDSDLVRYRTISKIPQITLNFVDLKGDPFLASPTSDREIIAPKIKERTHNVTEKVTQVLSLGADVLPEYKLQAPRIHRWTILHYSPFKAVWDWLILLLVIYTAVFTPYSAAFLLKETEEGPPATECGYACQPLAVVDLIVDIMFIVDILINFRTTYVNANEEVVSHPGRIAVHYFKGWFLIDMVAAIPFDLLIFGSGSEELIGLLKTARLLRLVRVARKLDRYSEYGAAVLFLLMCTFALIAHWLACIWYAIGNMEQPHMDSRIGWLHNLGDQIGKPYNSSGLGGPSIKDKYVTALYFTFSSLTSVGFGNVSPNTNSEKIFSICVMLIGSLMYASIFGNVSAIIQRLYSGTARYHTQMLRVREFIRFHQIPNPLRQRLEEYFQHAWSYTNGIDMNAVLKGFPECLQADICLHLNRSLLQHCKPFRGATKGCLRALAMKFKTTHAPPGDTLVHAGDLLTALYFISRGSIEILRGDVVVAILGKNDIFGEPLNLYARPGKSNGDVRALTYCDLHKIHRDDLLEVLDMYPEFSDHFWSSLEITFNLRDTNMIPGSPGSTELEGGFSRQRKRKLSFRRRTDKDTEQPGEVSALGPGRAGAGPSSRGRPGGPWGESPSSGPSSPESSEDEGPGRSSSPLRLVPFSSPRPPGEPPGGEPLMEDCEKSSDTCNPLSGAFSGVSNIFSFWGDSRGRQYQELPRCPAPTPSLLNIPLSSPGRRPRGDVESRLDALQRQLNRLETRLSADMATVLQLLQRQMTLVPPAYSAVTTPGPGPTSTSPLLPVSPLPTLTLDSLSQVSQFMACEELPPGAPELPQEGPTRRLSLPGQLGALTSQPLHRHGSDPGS

[43] = Primary phase half life in rhesus monkey at 1 mg/kg, iv; format: ADME, organism-based, Macaca mulatta; design: dose 1 mg/kg, route intravenous; details: in vivo, read-out: alphat1/2 (converted)
[44] = Terminal half life in dog at 5 mg/kg, iv; format: ADME, organism-based, Canis lupus familiaris; design: dose 5 mg/kg, route intravenous; details: in vivo, read-out: beta t1/2 (converted)
[45] = AUC in Sprague-Dawley rat at 100 mg/kg, po using PEG400 as vehicle; format: ADME, organism-based; design: dose 100 mg/kg, route oral; details: plasma
[46] = Primary phase half life in dog at 5 mg/kg, iv; format: ADME, organism-based, Canis lupus familiaris; design: dose 5 mg/kg, route intravenous; details: in vivo, read-out: alphat1/2 (converted)
[47] = AUC in Sprague-Dawley rat at 100 mg/kg, po using 1% methyl cellulose as vehicle; format: ADME, organism-based; design: dose 100 mg/kg, route oral; details: in vivo
[48] = Plasma clearance in dog at 5 mg/kg, iv; format: ADME, organism-based, Canis lupus familiaris; design: dose 5 mg/kg, route intravenous
[49] = Plasma concentration in dog at 10 mg/kg, po after 12 hrs; format: ADME, organism-based, Canis lupus familiaris; design: dose 10 mg/kg, route oral
[50] = Plasma concentration in dog at 2 mg/kg, po after 12 hrs; format: ADME, organism-based, Canis lupus familiaris; design: dose 2 mg/kg, route oral
[51] = Cmax in po dosed Sprague-Dawley rat; format: ADME, organism-based; design: route oral; details: in vivo
[52] = Human immunodeficiency virus 1, 3B, MT4

Chain of Cytochrome P450 3A4 (P08684 whole entry): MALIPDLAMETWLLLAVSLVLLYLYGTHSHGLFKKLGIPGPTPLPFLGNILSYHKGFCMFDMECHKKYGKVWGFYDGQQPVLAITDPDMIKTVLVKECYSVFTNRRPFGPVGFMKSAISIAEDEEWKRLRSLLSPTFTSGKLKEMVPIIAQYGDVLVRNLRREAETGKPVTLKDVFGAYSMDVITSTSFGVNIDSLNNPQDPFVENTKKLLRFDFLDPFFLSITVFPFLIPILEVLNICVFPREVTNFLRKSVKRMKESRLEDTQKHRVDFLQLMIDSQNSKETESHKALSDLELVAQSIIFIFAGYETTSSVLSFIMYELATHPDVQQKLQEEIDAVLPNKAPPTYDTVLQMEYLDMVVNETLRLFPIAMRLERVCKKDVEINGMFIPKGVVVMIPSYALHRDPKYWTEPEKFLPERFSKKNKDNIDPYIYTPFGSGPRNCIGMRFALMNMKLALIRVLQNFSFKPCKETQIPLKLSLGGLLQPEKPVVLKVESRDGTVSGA

Cc1nnc(C(=O)NC(C)(C)c2nc(C(=O)NCc3ccc(F)cc3)c(O)c(=O)n2C)o1
IC50 (Cytochrome P450 3A4): > 50 µM | half-life [1]: 4 h | IC50 [2]: > 50 µM | bioavailability [3]: 45% | bioavailability [4]: 8% | IC50 [5]: > 50 µM | clearance [6]: 6 mL/min/kg | Activity [7]: 1% | AUC [8]: 7 µM·h | IC50 [9]: > 50 µM | Activity [10]: 10% | Cmax [11]: 3 µM | IC50 (Cytochrome P450 1A2): > 50 µM | Activity [12]: 6% | AUC [13]: 1 µM·h | Activity [14]: 1% | IC95 [15]: 0.019 µM | AUC [16]: 1.8 µM·h | IC95 [17, 52]: 0.031 µM | AUC [18]: 21 µM·h | half-life [19]: 11 h | Vd [20]: 2 L/kg | clearance [21]: 39 mL/min/kg | Vd [22]: 0.9 L/kg | IC50 (Cytochrome P450 2D6): > 50 µM | IC50 [23]: > 50 µM | Cmax [24]: 1.2 µM | IC50 [25]: > 50 µM | Activity [26]: 8% | Cmax [27]: 8 µM | half-life [28]: 7 h | IC50 (DNA polymerase beta): > 50 µM | IC50 (Cytochrome P450 2C9): > 50 µM | clearance [29]: 18 mL/min/kg | Vd [30]: 1.2 L/kg | Cmax [31]: 0.3 µM | bioavailability [32]: 37% | half-life [33]: 2 h

CN(C)C(=O)C(=O)NC(C)(C)c1nc(C(=O)NCc2ccc(F)cc2)c(O)c(=O)n1C
IC50 (Cytochrome P450 3A4): > 50 µM | half-life [1]: 3 h | IC50 [2]: > 50 µM | Cmax [34]: 31 µM | bioavailability [4]: 24% | half-life [35]: 0.4 h | IC50 [5]: > 50 µM | Cmax [36]: 4.5 µM | Activity [7]: 8% | IC50 [37]: 0.01 µM | IC50 [9]: > 50 µM | Activity [10]: 40% | Cmax [38]: 12 µM | IC50 (Cytochrome P450 1A2): > 50 µM | half-life [39]: 4.9 h | half-life [40]: 0.9 h | Vd [41]: 1.1 L/kg | Activity [12]: 35% | AUC [13]: 0.7 µM·h | Activity [14]: 5% | IC95 [15]: 0.045 µM | AUC [16]: 5.2 µM·h | IC50 [42]: > 50 µM | IC95 [17, 52]: 0.074 µM | half-life [43]: 0.9 h | half-life [44]: 16 h | AUC [18]: 23 µM·h | Vd [20]: 1.3 L/kg | AUC [45]: 49 µM·h | clearance [21]: 20 mL/min/kg | half-life [46]: 1.2 h | IC50 (Cytochrome P450 2D6): > 50 µM | IC50 [23]: > 50 µM | Cmax [24]: 0.6 µM | IC50 [25]: > 50 µM | AUC [47]: 23 µM·h | Activity [26]: 19% | Cmax [27]: 11 µM | clearance [48]: 11 mL/min/kg | half-life [28]: 1.9 h | IC50 (DNA polymerase beta): > 50 µM | IC50 (Cytochrome P450 2C9): > 50 µM | clearance [29]: 14 mL/min/kg | Vd [30]: 2.9 L/kg | half-life [33]: 6 h

Cc1nnc(C(=O)NC(C)(C)c2nc(C(=O)NCc3ccc(F)cc3)c([O-])c(=O)n2C)o1.[K+] [RALTEGRAVIR POTASSIUM]
bioavailability [3]: 69% | concentration at 12 h [49]: 0.35 µM | AUC [8]: 11 µM·h | concentration at 12 h [50]: 0.16 µM | Cmax [11]: 4.6 µM | half-life [39]: 13 h | half-life [40]: 7.5 h | Cmax [51]: 1.6 µM | AUC [13]: 1.3 µM·h | IC95 [17]: 0.031 µM | Cmax [27]: 24 µM | bioavailability [32]: 45%
